Data reported in the NIST ThermoML archive (doi:10.1016/j.jct.2015.07.005).
Several values for one entry are separate records, joined by “and”; a condition that tells them apart may be missing. Equal entries are not always repeated.

Conditions: Gas, Frequency=0.005 MHz, Spherical cavity resonance method

F/C=C/C(F)(F)F [trans-1,3,3,3-tetrafluoropropene]
Conditions	speed of sound
279.9 K, 79.55 kPa	146.69 m/s and 146.7 m/s
279.9 K, 157.55 kPa	143.78 m/s
279.9 K, 241.33 kPa	140.43 m/s
279.91 K, 79.56 kPa	146.7 m/s
279.91 K, 241.34 kPa	140.43 m/s
279.92 K, 157.55 kPa	143.79 m/s
279.92 K, 241.34 kPa	140.43 m/s
299.96 K, 80.04 kPa	152.13 m/s
299.96 K, 239.74 kPa	147.27 m/s
299.97 K, 80.03 kPa	152.13 m/s
299.97 K, 159.07 kPa	149.78 m/s
299.97 K, 239.75 kPa	147.27 m/s
299.97 K, 361.26 kPa	143.22 m/s
299.98 K, 80.03 kPa	152.13 m/s
299.98 K, 159.07 kPa	149.78 m/s
299.98 K, 239.74 kPa	147.27 m/s
299.98 K, 361.27 kPa	143.22 m/s
319.93 K, 552.34 kPa	144.79 m/s
319.94 K, 98.42 kPa	156.86 m/s
319.94 K, 195.83 kPa	154.47 m/s
319.94 K, 195.84 kPa	154.47 m/s
319.94 K, 400.99 kPa	149.11 m/s
319.94 K, 552.38 kPa	144.78 m/s
319.94 K, 552.39 kPa	144.78 m/s
319.95 K, 98.42 kPa	156.87 m/s
319.95 K, 195.84 kPa	154.47 m/s
319.95 K, 400.99 kPa	149.1 m/s
319.96 K, 98.42 kPa	156.86 m/s
319.97 K, 790.74 kPa	137.11 m/s
319.97 K, 790.76 kPa	137.11 m/s
319.98 K, 790.76 kPa	137.11 m/s
319.98 K, 790.77 kPa	137.11 m/s
319.99 K, 790.81 kPa	137.11 m/s
339.94 K, 1198.3 kPa	134.8 m/s and 134.79 m/s
339.95 K, 199.81 kPa	159.81 m/s
339.95 K, 199.82 kPa	159.81 m/s
339.95 K, 311.18 kPa	157.48 m/s
339.95 K, 311.19 kPa	157.48 m/s
339.95 K, 511.43 kPa	153.07 m/s
339.95 K, 511.55 kPa	153.07 m/s
339.95 K, 797.03 kPa	146.18 m/s
339.95 K, 797.04 kPa	146.18 m/s
339.95 K, 1001.8 kPa	140.68 m/s
339.95 K, 1001.9 kPa	140.68 m/s
339.95 K, 1198.4 kPa	134.8 m/s
339.96 K, 99.31 kPa	161.86 m/s
339.96 K, 200.05 kPa	159.82 m/s
339.96 K, 311.18 kPa	157.48 m/s
339.96 K, 400.04 kPa	155.58 m/s and 155.58 m/s
339.96 K, 511.39 kPa	153.07 m/s
339.96 K, 797.05 kPa	146.18 m/s
339.96 K, 1001.9 kPa	140.68 m/s
339.97 K, 99.31 kPa	161.86 m/s
339.97 K, 200.05 kPa	159.82 m/s
339.97 K, 200.06 kPa	159.82 m/s
339.97 K, 400.04 kPa	155.58 m/s
339.97 K, 799.59 kPa	146.12 m/s
339.98 K, 595.08 kPa	151.15 m/s
339.98 K, 799.46 kPa	146.12 m/s
339.98 K, 799.52 kPa	146.12 m/s
359.95 K, 99 kPa	166.68 m/s
359.95 K, 99.01 kPa	166.68 m/s
359.96 K, 99 kPa	166.68 m/s
359.96 K, 99.01 kPa	166.69 m/s and 166.68 m/s
359.96 K, 307 kPa	163.12 m/s
359.96 K, 510.35 kPa	159.46 m/s
359.96 K, 808.74 kPa	153.75 m/s
359.96 K, 1598.8 kPa	135.69 m/s
359.97 K, 307 kPa	163.12 m/s
359.97 K, 511.03 kPa	159.45 m/s
359.97 K, 808.65 kPa	153.75 m/s
359.97 K, 808.68 kPa	153.75 m/s
359.97 K, 1174.2 kPa	146.04 m/s
359.97 K, 1174.3 kPa	146.04 m/s
359.97 K, 1598.8 kPa	135.7 m/s
359.97 K, 2002.9 kPa	123.58 m/s and 123.58 m/s
359.98 K, 1598.8 kPa	135.7 m/s
359.98 K, 2002.9 kPa	123.58 m/s
379.99 K, 98.62 kPa	171.32 m/s
379.99 K, 98.63 kPa	171.32 m/s
379.99 K, 297.94 kPa	168.44 m/s
379.99 K, 452.13 kPa	166.16 m/s
379.99 K, 784.29 kPa	161.02 m/s
379.99 K, 784.34 kPa	161.02 m/s
379.99 K, 1195.5 kPa	154.18 m/s
379.99 K, 1195.6 kPa	154.18 m/s
379.99 K, 2008.2 kPa	138.61 m/s
380 K, 98.61 kPa	171.32 m/s
380 K, 98.63 kPa	171.32 m/s
380 K, 297.93 kPa	168.44 m/s
380 K, 452.13 kPa	166.16 m/s
380 K, 784.28 kPa	161.02 m/s
380 K, 1195.5 kPa	154.18 m/s
380 K, 1608.3 kPa	146.68 m/s
380 K, 2008.2 kPa	138.61 m/s
380 K, 2215.6 kPa	134.03 m/s
380 K, 2215.7 kPa	134.03 m/s
380 K, 2385.9 kPa	130 m/s
380 K, 2386 kPa	130 m/s
380 K, 2606.5 kPa	124.35 m/s
380 K, 2606.6 kPa	124.35 m/s
380.01 K, 2606.6 kPa	124.35 m/s
380.01 K, 2822.2 kPa	118.21 m/s
380.01 K, 2822.3 kPa	118.22 m/s
380.02 K, 2822.3 kPa	118.22 m/s
401.99 K, 98.41 kPa	176.35 m/s
401.99 K, 98.44 kPa	176.35 m/s
401.99 K, 98.45 kPa	176.35 m/s
401.99 K, 98.46 kPa	176.35 m/s
402 K, 98.39 kPa	176.35 m/s
402 K, 98.4 kPa	176.35 m/s
402 K, 98.42 kPa	176.35 m/s
402 K, 98.43 kPa	176.35 m/s
402 K, 98.44 kPa	176.35 m/s
402 K, 98.45 kPa	176.35 m/s
402 K, 98.46 kPa	176.35 m/s
402 K, 299.24 kPa	173.94 m/s
402 K, 299.25 kPa	173.94 m/s
402 K, 299.26 kPa	173.94 m/s
402 K, 503.14 kPa	171.43 m/s
402 K, 504.13 kPa	171.42 m/s
402 K, 504.78 kPa	171.41 m/s
402 K, 504.99 kPa	171.4 m/s
402 K, 505.27 kPa	171.4 m/s
402 K, 505.76 kPa	171.4 m/s
402 K, 505.81 kPa	171.4 m/s
402 K, 505.96 kPa	171.4 m/s
402 K, 506.02 kPa	171.4 m/s
402.01 K, 502.88 kPa	171.44 m/s
402.01 K, 503 kPa	171.43 m/s
402.01 K, 505.02 kPa	171.41 m/s
402.01 K, 793.53 kPa	167.78 m/s
402.01 K, 793.54 kPa	167.77 m/s and 167.77 m/s
402.01 K, 1189.8 kPa	162.56 m/s and 162.56 m/s
402.01 K, 1595.9 kPa	156.94 m/s
402.01 K, 1596 kPa	156.94 m/s
402.02 K, 1595.8 kPa	156.94 m/s and 156.94 m/s
402.02 K, 1595.9 kPa	156.94 m/s
402.02 K, 1596 kPa	156.94 m/s
402.02 K, 1596.1 kPa	156.94 m/s
402.02 K, 1596.2 kPa	156.94 m/s
402.02 K, 1596.3 kPa	156.94 m/s
402.02 K, 1996.4 kPa	151.09 m/s
402.03 K, 1996.4 kPa	151.09 m/s and 151.09 m/s
402.03 K, 2385.1 kPa	145.09 m/s
402.03 K, 2385.2 kPa	145.1 m/s and 145.1 m/s
402.04 K, 2832 kPa	137.75 m/s and 137.75 m/s
402.04 K, 2832.1 kPa	137.75 m/s and 137.75 m/s
419.97 K, 100.24 kPa	180.17 m/s
419.97 K, 100.26 kPa	180.17 m/s
419.97 K, 100.28 kPa	180.17 m/s
419.97 K, 298.93 kPa	178.09 m/s
419.98 K, 100.2 kPa	180.17 m/s
419.98 K, 100.21 kPa	180.17 m/s
419.98 K, 100.22 kPa	180.17 m/s
419.98 K, 100.23 kPa	180.17 m/s
419.98 K, 100.24 kPa	180.17 m/s
419.98 K, 100.25 kPa	180.17 m/s
419.98 K, 100.27 kPa	180.17 m/s
419.98 K, 100.28 kPa	180.17 m/s
419.98 K, 298.92 kPa	178.09 m/s
419.98 K, 298.93 kPa	178.09 m/s
419.98 K, 476.26 kPa	176.21 m/s
